In patent US20240197682A1, “METHOD FOR TREATING NEUROLOGICAL DISEASES USING SUPRAMOLECULE POLYMER THERAPEUTICS” (The Regents of the University of California, priority 2022, published 2024):
Like-named read-outs stand apart in the source and are kept apart here. Values belong to the compound of their own block, whether it stands above or below them.

How the values were obtained:
[1] = target: T1, YFP-tagged full length 0N4R-Tau P301S aggregates seeded by 416-AD11A lysate (T24 cells) (Homo sapiens, UniProt P10636, P618S); assay: Tau-AD high throughput screening (counter screen) in T24 cells; format: cell-based; settings: T24 cells transfected with 416-AD11A lysate
T1 construct: C-terminally YFP-tagged full length 0N4R-Tau carrying a P301S mutation; expressed in transfected cells
T1 sequence (P10636 1-383 isoform P10636-6 P243S): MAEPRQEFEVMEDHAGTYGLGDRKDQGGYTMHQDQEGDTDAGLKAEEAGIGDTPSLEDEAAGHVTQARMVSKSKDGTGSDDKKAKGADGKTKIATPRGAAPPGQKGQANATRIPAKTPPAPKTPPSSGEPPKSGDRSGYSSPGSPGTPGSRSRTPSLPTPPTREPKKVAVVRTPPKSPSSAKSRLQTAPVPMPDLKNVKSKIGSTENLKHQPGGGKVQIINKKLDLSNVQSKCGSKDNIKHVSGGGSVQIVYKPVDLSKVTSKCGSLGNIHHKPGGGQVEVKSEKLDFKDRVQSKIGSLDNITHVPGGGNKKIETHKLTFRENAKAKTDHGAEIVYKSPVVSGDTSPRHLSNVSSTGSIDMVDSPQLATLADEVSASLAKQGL
Protocol: A fragment of the Middle Tempral Gyrus (MTG) from Alzheimer's Disease (AD) patient 2217 was resuspended in 9 volumes of PBS (ml/g of brain) and homogenized 3×12 seconds using a probe homogenizer (Thomas Scientific) with disposable Omni Tip plastic homogenizing probes (Thomas Scinetific Cat No 3409Y77) to generate a 10% brain homogenate (10% AD11-BH). The 10% AD11-BH was clarified of insoluble debris by centrifugation at 800×g for 5 minutes. The resulting supernatant was collected and the protein concentration of this clarified BH (AD11-CBH) was determined by bicinchoninic acid assay (BCA) (Thermo Fisher Cat No. 23227). HEK293 cells stably expressing a C-terminally Clover-tagged truncated 4R-Tau^243-382 transgene containing the P301L and V337M mutations and a C-terminally Ruby-tagged truncated 3R-Tau^243-382 transgene containing the L266V and V337M mutations (128/139 cells) were transfected with the AD11-CBH using lipofectamine 2000 (LF2K) (Thermo Fisher Cat No. 11668500). Briefly, 0.32 μl of LF2K were diluted in 5 μl Opti-MEM (Thermo Scientific Cat No 31985070) per well of a 384-well plate and incubated for 5 min at room temperature (RT). This mixture was added to 0.32 μg of AD11-CBH diluted in 5 μl of PBS per well of a 384-well plate and vortex briefly. The transfection mixture was incubated at room temperature for 90 min. The transfection complexes were subsequently added to a single well of a 384-well plate containing 3500 128/139 cells. After 3 days the cells were harvested, counted and plated at a density of 1 cell/well in a 96-well plate. A clonal cell line containing Clover and Ruby positive Tau aggregates was selected and termed 416-AD11A cells. Following the expansion of these 416-AD11A cells, a cell lysate was prepared by freeze/thaw. The cells from a confluent T175 flask were harvested in 1 ml of PBS containing 1× protease inhibitor cocktail by scraping. The cell suspension was subjected to 4 cycles of freezing in liquid nitrogen for 5 minutes followed by thawing at 37° C. for 5 minutes. The resulting cell lysate was centrifuged at 2000 RPM for 10 minutes to remove the cell debris and the protein concentration of the resulting 416-AD11A lysate was determined by BCA assay and aliquots frozen for future use.
HEK293 cells stably expressing C-terminally YFP-tagged full length 0N4R-Tau carrying a P301S mutation (T24 cells) are plated at a density of 4000 cells per well of a 384-well black walled, clear bottom plate (Greiner Cat No 5678-1091Q) in 60 μl of complete DMEM (DMEM (Corning Cat No 10-013-CV), 10% FBS (VWR Cat No 97068-085, 0.5% Penicilin/streptomycin (Gibco Cat No 15140-122)) containing 0.1 μg/ml Hoechst Dye (Thermo Scientific Cat No H3570). Transfection complexes are prepared by diluting 0.15 μg of 416-AD11A lysate or HEK lysate in 5 μl of PBS per well to be transfected and 0.15 μl of Lipofectamine 2000 (LF2K) (ThermoFisher Cat No 11668500) in 5 μl of Opti-MEM per well to be transfected in separate tubes. The pre-diluted 416-AD11A or HEK lysates and LF2K are subsequently mixed and allowed to incubate for 90 minutes at RT. A 10 μl aliquot of the 416-AD11A or HEK transfection complexes is added to the appropriate wells of the 384-well plate containing the T24 cells using the Bravo liquid handling platform (Agilent). Wells A23-P24 of the 384-well plate are transfected with HEK lysate to act as a reference point for spontaneous aggregation of 0N4R^P301S and for transfection related toxicity. The dilution of test compounds is performed using the Bravo liquid handling platform (Agilent). The control is DMSO in the absence of any test compound. Briefly, 1 μl of each test compound (5 mM stock) in the 384-well test plate was transferred to a 384-well plate (Greiner Cat No 781280) containing 61.5 μl of complete DMEM to generate a working stock of compounds at 80 μM. […]

[2] = Parallel Artificial Membrane Permeability Assay (PAMPA); format: in vitro ADME; settings: for Papp at 4 hr, 200 uM: PAMPA, read-out: PAMPA: P_app; for PAMPA: P_app: 200 uM test compound, 4 hr
Protocol: 5 uL of 1% lecithin (VWR 0579) dissolved in n-dodecane (Sigma Aldrich D221104) was applied to each well of a MultiScreen IP PAMPA filter plate (Millipore MAIPSWU10) and allowed to equilibrate for 5 minutes. 300 uL of PBS was added to the acceptor plate and 150 uL of 200 uM test compound dissolved in PBS and 30% ethanol was added to the donor wells before incubating the donor plate in the acceptor plate for 4 hr at 500 rpm. 100 uL was sampled from the donor and acceptor wells and the concentrations were measured by liquid chromatography-mass spectrometry (SCIEX 4500) or UV-VIS plate reader (BMG).

tau fibrils = tau fibrils (Homo sapiens, UniProt P10636); settings: cited from earlier work
tau fibrils, sequence (P10636 1-441 isoform P10636-8): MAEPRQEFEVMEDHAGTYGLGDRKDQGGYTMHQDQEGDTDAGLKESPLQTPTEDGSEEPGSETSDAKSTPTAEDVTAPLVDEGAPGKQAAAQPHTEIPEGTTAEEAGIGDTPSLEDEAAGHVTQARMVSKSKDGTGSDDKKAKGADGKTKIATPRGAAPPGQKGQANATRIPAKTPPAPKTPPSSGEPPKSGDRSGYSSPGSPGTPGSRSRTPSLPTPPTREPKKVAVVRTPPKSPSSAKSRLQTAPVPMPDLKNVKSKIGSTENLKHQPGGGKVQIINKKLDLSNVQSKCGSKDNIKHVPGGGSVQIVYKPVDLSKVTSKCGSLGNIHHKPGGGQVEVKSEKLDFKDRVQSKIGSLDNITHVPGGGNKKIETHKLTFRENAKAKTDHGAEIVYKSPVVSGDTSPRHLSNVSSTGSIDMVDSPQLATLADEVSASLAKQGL

SMILES: O=C(Cn1cc(-c2ccoc2)c(=O)c2ccc(N3CCCC3)cc21)Nc1ccccc1C(F)(F)F [Compound 149, 2-[3-(furan-3-yl)-4-oxo-7-(pyrrolidin-1-yl)-1,4-dihydroquinolin-1-yl]-N-[2-(trifluoromethyl)phenyl]acetamide]
AD Tau Aggregates (% control) [1]: 100 % control
Papp at 4 hr, 200 uM ([2]; pH 5.0, 200 uM test compound): 16.9 ×10⁻⁶ cm/s
Papp at 4 hr, 200 uM ([2]; pH 7.4, 200 uM test compound): 11.2 ×10⁻⁶ cm/s

SMILES: Cc1ccnn1-c1nc(-n2cc3ccn(C(F)(F)F)c3nc2=O)c(-c2ccc(F)cc2)o1 [Compound 240]
AD Tau Aggregates (% control) [1]: 95 % control
PAMPA: P_app ([2]; pH 7.4): 2.41 ×10e−6 cm/sec

SMILES: Cc1ccn(-c2nc(-n3cc4ccn(C(F)(F)F)c4nc3=O)c(-c3ccc(F)cc3)o2)n1 [Compound 241]
AD Tau Aggregates (% control) [1]: 98 % control
PAMPA: P_app ([2]; pH 7.4): 1.36 ×10e−6 cm/sec

SMILES: O=c1nc2c(ccn2C(F)(F)F)cn1-c1nc(N2Cc3ccccc3C2)oc1-c1ccc(F)cc1 [Compound 242]
AD Tau Aggregates (% control) [1]: 99 % control
PAMPA: P_app ([2]; pH 7.4): 5.72 ×10e−6 cm/sec

SMILES: CNC(=O)c1ncc2c(-c3ccccc3Cl)nn(-c3ccc(F)cc3)c2n1 [Compound 244]
AD Tau Aggregates (% control) [1]: 100 % control
PAMPA: P_app ([2]; pH 5.0): >50 ×10e−6 cm/sec
PAMPA: P_app ([2]; pH 7.4): 45 ×10e−6 cm/sec

SMILES: CCc1ccccc1-c1nn(-c2ccc(F)cc2)c2nc(C(=O)NC)ncc12 [Compound 245]
AD Tau Aggregates (% control) [1]: 120 % control
PAMPA: P_app ([2]; pH 5.0): >50 ×10e−6 cm/sec
PAMPA: P_app ([2]; pH 7.4): >50 ×10e−6 cm/sec

SMILES: CNC(=O)c1ncc2c(-c3ccccc3)nn(-c3ccc(F)cc3)c2n1 [Compound 246]
AD Tau Aggregates (% control) [1]: 120 % control
PAMPA: P_app ([2]; pH 5.0): >50 ×10e−6 cm/sec
PAMPA: P_app ([2]; pH 7.4): >50 ×10e−6 cm/sec

SMILES: CNC(=O)c1ncc2c(-c3ccccc3)nn(Cc3ccccc3)c2n1 [Compound 248]
AD Tau Aggregates (% control) [1]: 95 % control
PAMPA: P_app ([2]; pH 5.0): 46.6 ×10e−6 cm/sec
PAMPA: P_app ([2]; pH 7.4): >50 ×10e−6 cm/sec

SMILES: CNC(=O)c1ncc2c(-c3cc4ccccc4cn3)nn(Cc3ccccc3)c2n1 [Compound 256, 1-benzyl-3-(isoquinolin-3-yl)-N-methyl-1H-pyrazolo[3,4-d]pyrimidine-6-carboxamide]
AD Tau Aggregates (% control) [1]: 100 % control
Papp at 4 hr, 200 uM ([2]; pH 5.0, 200 uM test compound): > 50 ×10⁻⁶ cm/s
PAMPA: P_app ([2]; pH 7.4): >50 ×10e−6 cm/sec

SMILES: CNC(=O)c1ncc2c(-c3ccc(F)cc3)nn(Cc3ccc(F)cc3)c2n1 [Compound 261]
AD Tau Aggregates (% control) [1]: 87 % control

SMILES: CC(=O)Nc1ncc2c(-c3ccccc3)nn(C(C)c3ccccc3)c2n1 (stereo not drawn) [Compound 265]
AD Tau Aggregates (% control) [1]: 110 % control

SMILES: FCCC1CCN(c2ccn3c(n2)nc2ccccc23)CC1 [GTP-1]
IC50 (tau fibrils; GTP-1, read-out: measured IC50): 22 nM
Kd (tau fibrils; tau PET tracer GTP-1, estimated Kd): 11 nM

Results, then the compound that gave them:

AD Tau Aggregates (% control) [1]: 98 % control
PAMPA: P_app ([2]; pH 5.0): >50 ×10e−6 cm/sec
PAMPA: P_app ([2]; pH 7.4): >50 ×10e−6 cm/sec
SMILES: CC(=O)Nc1ncc2c(-c3ccccc3C)nn(Cc3ccccc3)c2n1 [Compound 266]

AD Tau Aggregates (% control) [1]: 91 % control
PAMPA: P_app ([2]; pH 7.4): 5.98 ×10e−6 cm/sec
SMILES: CC(=O)Nc1ncc2c(-c3ccccc3)nn(Cc3cncc(F)c3)c2n1 [Compound 267]

AD Tau Aggregates (% control) [1]: 105 % control
SMILES: CC(=O)Nc1ncc2c(-c3ccccc3C#N)nn(Cc3ccccc3)c2n1 [Compound 268]

AD Tau Aggregates (% control) [1]: 100 % control
PAMPA: P_app ([2]; pH 5.0): 19.1 ×10e−6 cm/sec
PAMPA: P_app ([2]; pH 7.4): 26.7 ×10e−6 cm/sec
SMILES: CCC(=O)Nc1ncc2c(-c3ccccc3)nn(Cc3ccc(OC)cc3)c2n1 [Compound 269]

AD Tau Aggregates (% control) [1]: 94 % control
PAMPA: P_app ([2]; pH 5.0): 4.6 ×10e−6 cm/sec
PAMPA: P_app ([2]; pH 7.4): 6.3 ×10e−6 cm/sec
SMILES: COC(=O)Nc1ncc2c(-c3ccccc3)nn(-c3ccccc3)c2n1 [Compound 274]

AD Tau Aggregates (% control) [1]: 92 % control
PAMPA: P_app ([2]; pH 5.0): 44.7 ×10e−6 cm/sec
PAMPA: P_app ([2]; pH 7.4): >50 ×10e−6 cm/sec
SMILES: CC(=O)Nc1ncc2c(-c3ccccc3)nn(Cc3ccncc3)c2n1 [Compound 279]

AD Tau Aggregates (% control) [1]: 90 % control
PAMPA: P_app ([2]; pH 5.0): 19.5 ×10e−6 cm/sec
PAMPA: P_app ([2]; pH 7.4): 19.5 ×10e−6 cm/sec
SMILES: CC(=O)Nc1ncc2c(-c3ccccc3)nn(CC3CCCCC3)c2n1 [Compound 280]

AD Tau Aggregates (% control) [1]: 100 % control
SMILES: CNc1ncc2c(-c3ccccc3)nn(-c3ccccc3)c2n1 [Compound 286, N-methyl-1,3-diphenyl-1H-pyrazolo[3,4-d]pyrimidin-6-amine]

AD Tau Aggregates (% control) [1]: 98 % control
Papp at 4 hr, 200 uM ([2]; pH 5.0, 200 uM test compound): > 50 ×10⁻⁶ cm/s
PAMPA: P_app ([2]; pH 7.4): >50 ×10e−6 cm/sec
SMILES: CNC(=O)c1ncc2c(n1)c(-c1ccc(Cl)cc1)nn2-c1ccnc(C(C)(F)F)n1 [Compound 288, 3-(4-chlorophenyl)-1-[2-(1,1-difluoroethyl)pyrimidin-4-yl]-N-methyl-pyrazolo[4,3-d]pyrimidine-5-carboxamide]

AD Tau Aggregates (% control) [1]: 95 % control
Papp at 4 hr, 200 uM ([2]; pH 5.0, 200 uM test compound): 16.5 ×10⁻⁶ cm/s
Papp at 4 hr, 200 uM ([2]; pH 7.4, 200 uM test compound): 39.3 ×10⁻⁶ cm/s
SMILES: CNC(=O)c1ncc2c(C#Cc3ccccc3)nn(-c3ccc(OC(F)F)cc3)c2n1 [Compound 290, 1-(4-(difluoromethoxy)phenyl)-N-methyl-3-(phenylethynyl)-1H-pyrazolo[3,4-d]pyrimidine-6-carboxamide]

AD Tau Aggregates (% control) [1]: 110 % control
SMILES: CNC(=O)c1ncc2c(-c3ccccc3)cn(-c3ccccc3)c2n1 [Compound 291, N-methyl-5,7-diphenyl-7H-pyrrolo[2,3-d]pyrimidine-2-carboxamide]
